Test results taken from patent publication US20260068882A1, “ARTHROPOD CONTROLLING COMPOSITION” (Firmenich SA, priority 2019, published 2026).
Read-outs that look alike come from different tables or passages of the source.

What was measured:
Aedes aegypti = assay: In vitro Warm Body assay, mosquitoes landing on treated warm body; format: in vivo; conditions: for % of mosquitoes' repellency: normalised to landing with 100% ethanol
Procedure: (§1) The arthropod controlling effect according to the present invention is determined on mosquitoes using an adapted Warm Body assay as defined in Kröber T, Kessler S, Frei J, Bourquin M, Guerin P M. An in vitro assay for testing mosquito controlling compounds employing a warm body and carbon dioxide as a behavioral activator. J Am Mosq Control Assoc. 2010; 26:381-386.
(§2) The controlling effect according to the present invention is determined by testing the Warm Body assay against the yellow fever mosquito, Aedes aegypti Rockefeller strain. […] Observations of controlling efficacy were made on host-seeking females of uniform age, 5 to 10 days old selected as mentioned in the publication mentioned hereinabove. Tested hungry females had access to 10% sugar solution but were not blood-fed.
(§3) The published protocol has been adapted in not manually counting the landing mosquitoes but automatically using an automatic counting software, the switch from Anopheles gambiae to A. aegypti led to a decrease of mosquitoes' number placed in the tested cage due to the size difference (i.e. 30 mosquitoes instead of 50) and to an increase of lighting as A. aegypti is a diurnal mosquitoes (i.e. 150 lux instead of 4 lux).
as §2, with “A.” for “Aedes”
as §1, with “The” for “The arthropod”, “was assessed” for “is determined on mosquitoes”
as §3, with “Aedes” for “A.”
In this in-vitro assay the number of A. aegypti landing on a warm body treated with the tested stimuli was measured in order to assess the repellency effect. Three replicates were carried on the three different doses: 0.0016%, 0.04% and 1% in ethanol, using 25 A. aegypti 10-12 days old females per cage.
In this in-vitro assay, the number of Aedes aegypti landing on a warm body treated with the tested stimuli was measured in order to assess the repellency effect. Three replicates were carried on the three different doses: 0.0016%, 0.04% and 1% in ethanol.
In this in-vitro assay, the number of Aedes aegypti landing on a warm body treated with the tested stimuli was measured in order to assess the repellency effect. One replicate was carried at different doses ranging from 0.0016% up to 1% in ethanol.

Ixodes ricinus = assay: In vitro Warm Plate Assay for ticks; format: in vivo; conditions: for percentage of ticks affected overtime: 20% (w/w) in ethanol
Procedure: Repellent efficacy of the different compounds was assessed against the sheep tick, Ixodes ricinus. I. ricinus is one of the recommended model organisms mentioned by the Guidance on the European Biological Products Regulation [Vol II, Efficacy-Assessment & Evaluation (Parts B+C), v. 3.0, April 2018]. Observations of repellent efficacy were made on last stage nymphs.
The repellent efficacy was assessed using the protocol of the in-vitro Warm Plate Assay as defined in Kröber T, Bourquin M, Guerin P M. A standardized in vivo and in vitro test method for evaluating tick repellents. Pesticide Biochemistry and Physiology. 2013; 107 (2): 160-168.].
The mean±SD number of ticks Ixodes ricinus walking down (affected), falling (affected) or walking-up (non affected) from the warm plate treated with ethanol, N,N-diethyl-3-methylbenzamide, (2,5-dimethyl-2,3-dihydro-1H-inden-2yl)methanol (Ingredient 2) or (2,4,6-trimethyl-2,3-dihydro-1H-inden-2-yl)methanol (Ingredient 1) diluted in ethanol at 0.4 mg/ml and 10 mg/mL was assessed on n groups of 12 ticks (n=2-5).
In this in-vitro assay, the percentage of ticks Ixodes ricinus affected by the stimulus loaded on the warm plate was measured in order to assess the repellency effect. Twelve ticks were assessed per concentrations that goes from 0.0016% up to 1% in ethanol.
Using the same in-vitro setup, the effect on ticks behavior (n≥12) of different stimuli diluted in ethanol at 20% (w/w) was assessed overtime.

[1] = Ixodes ricinus, 0.04% (Table 10), read-out: percentage of ticks affected on the Warm Plate
[2] = Ixodes ricinus, 0.2% (Table 10), read-out: percentage of ticks affected on the Warm Plate
[3] = Ixodes ricinus, 1% (Table 10), read-out: percentage of ticks affected on the Warm Plate
[4] = 0.0016% in ethanol (Table 7, one replicate)
[5] = 0.008% in ethanol (Table 7, one replicate)
[6] = 0.04% in ethanol (Table 7, one replicate)
[7] = 0.2% in ethanol (Table 7, one replicate)
[8] = 1% in ethanol (Table 7, one replicate)
[9] = Ixodes ricinus, read-out: percentage of ticks affected on the Warm Plate

## Cc1ccc2c(c1)[C@H]1OCOC[C@H]1C2 (racemic) [(4aRS,9bSR)-8-methyl-4,4a,5,9b-tetrahydroindeno[1,2-d][1,3]dioxin]
Aedes aegypti; 0.0016% in ethanol (Table 6)
  number of mosquitoes landed on the Warm Body: 103
Aedes aegypti; 0.04% in ethanol (Table 6)
  number of mosquitoes landed on the Warm Body: 8
Aedes aegypti; 1% in ethanol (Table 6)
  number of mosquitoes landed on the Warm Body: 8
Ixodes ricinus; [1]
  pest or weed control at 0.04 %: 8%
Ixodes ricinus; [2]
  pest or weed control at 0.2 %: 33%
Ixodes ricinus; [3]
  pest or weed control at 1 %: 85%

## Cc1ccc2c(c1)CCC(C)(CO)C2 (racemic) [(+−)-(2,6-dimethyl-1,2,3,4-tetrahydro-2-naphthalenyl)methanol]
Aedes aegypti; 0.0016% in ethanol (Table 6)
  number of mosquitoes landed on the Warm Body: 57
Aedes aegypti; 0.04% in ethanol (Table 6)
  number of mosquitoes landed on the Warm Body: 65
Aedes aegypti; 1% in ethanol (Table 6)
  number of mosquitoes landed on the Warm Body: 3
Ixodes ricinus; [1]
  pest or weed control at 0.04 %: 8%
Ixodes ricinus; [2]
  pest or weed control at 0.2 %: 71%
Ixodes ricinus; [3]
  pest or weed control at 1 %: 100%

## N#CC1Cc2ccccc2C1 [2,3-dihydro-1H-indene-2-carbonitrile]
Aedes aegypti; 0.0016% in ethanol (Table 6)
  number of mosquitoes landed on the Warm Body: 59
Aedes aegypti; 0.04% in ethanol (Table 6)
  number of mosquitoes landed on the Warm Body: 13
Ixodes ricinus; [1]
  pest or weed control at 0.04 %: 29%
Ixodes ricinus; [2]
  pest or weed control at 0.2 %: 71%
Ixodes ricinus; [3]
  pest or weed control at 1 %: 100%

## CCCCC[C@@H]1C(=O)CC[C@@H]1CC(=O)OC [ingredient #4, (+)-methyl (1R)-cis-3-oxo-2-pentyl-1-cyclopentaneacetate, reference compound]
Aedes aegypti; [4]
  number of mosquitoes landed on the Warm Body: 66
Aedes aegypti; [5]
  number of mosquitoes landed on the Warm Body: 53
Aedes aegypti; [6]
  number of mosquitoes landed on the Warm Body: 16
Aedes aegypti; [7]
  number of mosquitoes landed on the Warm Body: 17
Aedes aegypti; [8]
  number of mosquitoes landed on the Warm Body: 4
Ixodes ricinus; [9]
  pest or weed control at 0.0016 %: 15%
  pest or weed control at 0.0053 %: 17%
  pest or weed control at 0.008 %: 8%
  pest or weed control at 0.0119 %: 0%
  pest or weed control at 0.0178 %: 33%
  pest or weed control at 0.0267 %: 36%
  pest or weed control at 0.04 %: 92%
  pest or weed control at 0.0598 %: 100%
  pest or weed control at 0.089 %: 100%
  pest or weed control at 0.2 %: 100%
  pest or weed control at 0.447 %: 92%
  pest or weed control at 1 %: 100%

## CCCCN(CCC(=O)OCC)C(C)=O [IR3535, 3-[N-n-butyl-N-acetyl]aminopropionic acid ethylester, reference compound]
Aedes aegypti; 0.00032% concentration
  % of mosquitoes' repellency: 8%
Aedes aegypti; 0.0016% concentration
  % of mosquitoes' repellency: 0%
Aedes aegypti; 0.0016% dilution (Table 4)
  mean ± SD numbers of mosquitoes landed on the Warm Body: 70.0 ± 14.3
Aedes aegypti; [4]
  number of mosquitoes landed on the Warm Body: 70
Aedes aegypti; 0.0080% concentration
  % of mosquitoes' repellency: 0%
Aedes aegypti; [5]
  number of mosquitoes landed on the Warm Body: 63
Aedes aegypti; 0.0119% in ethanol (Table 7, one replicate)
  number of mosquitoes landed on the Warm Body: 22
Aedes aegypti; 0.040% concentration
  % of mosquitoes' repellency: 69%
Aedes aegypti; 0.04% dilution (Table 4)
  mean ± SD numbers of mosquitoes landed on the Warm Body: 20.7 ± 2.1
Aedes aegypti; [6]
  number of mosquitoes landed on the Warm Body: 21
Aedes aegypti; 0.0598% in ethanol (Table 7, one replicate)
  number of mosquitoes landed on the Warm Body: 6
Aedes aegypti; 0.20% concentration
  % of mosquitoes' repellency: 78%
Aedes aegypti; [7]
  number of mosquitoes landed on the Warm Body: 9
Aedes aegypti; 0.447% in ethanol (Table 7, one replicate)
  number of mosquitoes landed on the Warm Body: 0
Aedes aegypti; 1% concentration
  % of mosquitoes' repellency: 89%
Aedes aegypti; 1% dilution (Table 4)
  mean ± SD numbers of mosquitoes landed on the Warm Body: 7.7 ± 1.6
Aedes aegypti; [8]
  number of mosquitoes landed on the Warm Body: 8
Aedes aegypti; concentrations lower than 0.04%
  repulsion (in words): only low repulsion
Ixodes ricinus; 0.0016% in ethanol (Table 12)
  percentage of ticks affected on the Warm Plate: 0%
Ixodes ricinus; 0.0053% in ethanol (Table 12)
  percentage of ticks affected on the Warm Plate: 0%
Ixodes ricinus; 0.008% in ethanol (Table 12)
  percentage of ticks affected on the Warm Plate: 8%
Ixodes ricinus; 0.0119% in ethanol (Table 12)
  percentage of ticks affected on the Warm Plate: 0%
Ixodes ricinus; 0.0178% in ethanol (Table 12)
  percentage of ticks affected on the Warm Plate: 0%
Ixodes ricinus; 0.0267% in ethanol (Table 12)
  percentage of ticks affected on the Warm Plate: 0%
Ixodes ricinus; 0.04% in ethanol (Table 12)
  percentage of ticks affected on the Warm Plate: 33%
Ixodes ricinus; 0.0598% in ethanol (Table 12)
  percentage of ticks affected on the Warm Plate: 12%
Ixodes ricinus; 0.089% in ethanol (Table 12)
  percentage of ticks affected on the Warm Plate: 46%
Ixodes ricinus; 0.2% in ethanol (Table 12)
  percentage of ticks affected on the Warm Plate: 57%
Ixodes ricinus; 0.447% in ethanol (Table 12)
  percentage of ticks affected on the Warm Plate: 53%
Ixodes ricinus; 1% in ethanol (Table 12)
  percentage of ticks affected on the Warm Plate: 56%
Ixodes ricinus; 0.25 h post-application
  percentage of ticks affected overtime: 83%
Ixodes ricinus; 0.5 h post-application
  percentage of ticks affected overtime: 40%
Ixodes ricinus; 1 h post-application
  percentage of ticks affected overtime: 83%
Ixodes ricinus; 2 h post-application
  percentage of ticks affected overtime: 58%
Ixodes ricinus; 4 h post-application
  percentage of ticks affected overtime: 58%
Ixodes ricinus; 6 h post-application
  percentage of ticks affected overtime: 0%
Ixodes ricinus; dose of 0.89%
  ticks affected: 46%
